Experimental data taken from publication PMC7827406, “Structure–Activity Relationship (SAR) Study of Spautin-1 to Entail the Discovery of Novel NEK4 Inhibitors” (International Journal of Molecular Sciences, 2021).
Read-outs that look alike come from different tables or passages of the source.

Columns and labels:
Assay in all cases: biochemical
Design in all cases: Eurofins KinaseProfiler full panel at Km ATP, residual kinase activity (%) relative to DMSO
Abl(Y253F)(h) = target: T1, Abl(Y253F)(h) (Homo sapiens, UniProt P00519, Y253F)
T1 construct: gene ABL1
Outline: (§1)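 Radiometric kinase activity assays were run with ATP at Km and compounds at 10 µM, and remaining activity (%) was reported. A separate competitive binding screen measured DNA-tagged kinase displaced from immobilized active-site ligands by qPCR, giving percent kinase still bound at 10 µM compound in DMSO.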

TTK(h) = target: T2, TTK(h) (Homo sapiens, UniProt P33981)
T2 sequence (P33981 1-857): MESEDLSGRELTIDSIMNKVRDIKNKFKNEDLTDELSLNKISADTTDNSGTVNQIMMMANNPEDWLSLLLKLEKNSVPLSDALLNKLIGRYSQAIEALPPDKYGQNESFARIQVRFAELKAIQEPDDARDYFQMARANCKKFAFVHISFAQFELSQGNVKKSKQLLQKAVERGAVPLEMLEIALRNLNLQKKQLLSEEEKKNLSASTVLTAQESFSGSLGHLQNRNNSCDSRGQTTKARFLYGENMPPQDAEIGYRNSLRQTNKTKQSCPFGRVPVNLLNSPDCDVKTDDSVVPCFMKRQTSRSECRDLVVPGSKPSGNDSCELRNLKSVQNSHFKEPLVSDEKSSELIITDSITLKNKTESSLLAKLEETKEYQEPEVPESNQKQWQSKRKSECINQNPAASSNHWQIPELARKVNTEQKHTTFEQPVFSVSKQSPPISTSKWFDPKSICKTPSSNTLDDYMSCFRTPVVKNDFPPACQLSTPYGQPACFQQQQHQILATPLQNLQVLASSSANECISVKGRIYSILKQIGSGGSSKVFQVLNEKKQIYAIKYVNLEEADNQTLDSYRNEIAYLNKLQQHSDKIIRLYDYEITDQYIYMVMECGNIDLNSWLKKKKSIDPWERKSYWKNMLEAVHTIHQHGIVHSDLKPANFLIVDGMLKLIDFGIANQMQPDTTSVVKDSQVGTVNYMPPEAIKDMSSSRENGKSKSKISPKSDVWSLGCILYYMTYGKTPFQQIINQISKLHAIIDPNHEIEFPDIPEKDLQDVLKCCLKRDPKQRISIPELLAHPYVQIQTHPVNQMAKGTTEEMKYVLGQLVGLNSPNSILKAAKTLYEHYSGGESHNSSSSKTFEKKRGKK
Outline: as §1

MST4(h) = target: T3, MST4(h) (Homo sapiens, UniProt Q9P289)
T3 construct: gene STK26
Outline: as §1

GCN2(h) = target: T4, GCN2(h) (Homo sapiens, UniProt Q9P2K8)
T4 construct: gene EIF2AK4
Outline: as §1

ErbB2(h) = ErbB2(h) (Homo sapiens, UniProt P04626)
Outline: as §1

PKBγ(h) = target: T5, PKBγ(h) (Homo sapiens, UniProt Q9Y243)
T5 construct: gene AKT3
Outline: as §1

DDR2(h) = target: T6, DDR2(h) (Homo sapiens, UniProt Q16832)
T6 sequence (Q16832 1-855): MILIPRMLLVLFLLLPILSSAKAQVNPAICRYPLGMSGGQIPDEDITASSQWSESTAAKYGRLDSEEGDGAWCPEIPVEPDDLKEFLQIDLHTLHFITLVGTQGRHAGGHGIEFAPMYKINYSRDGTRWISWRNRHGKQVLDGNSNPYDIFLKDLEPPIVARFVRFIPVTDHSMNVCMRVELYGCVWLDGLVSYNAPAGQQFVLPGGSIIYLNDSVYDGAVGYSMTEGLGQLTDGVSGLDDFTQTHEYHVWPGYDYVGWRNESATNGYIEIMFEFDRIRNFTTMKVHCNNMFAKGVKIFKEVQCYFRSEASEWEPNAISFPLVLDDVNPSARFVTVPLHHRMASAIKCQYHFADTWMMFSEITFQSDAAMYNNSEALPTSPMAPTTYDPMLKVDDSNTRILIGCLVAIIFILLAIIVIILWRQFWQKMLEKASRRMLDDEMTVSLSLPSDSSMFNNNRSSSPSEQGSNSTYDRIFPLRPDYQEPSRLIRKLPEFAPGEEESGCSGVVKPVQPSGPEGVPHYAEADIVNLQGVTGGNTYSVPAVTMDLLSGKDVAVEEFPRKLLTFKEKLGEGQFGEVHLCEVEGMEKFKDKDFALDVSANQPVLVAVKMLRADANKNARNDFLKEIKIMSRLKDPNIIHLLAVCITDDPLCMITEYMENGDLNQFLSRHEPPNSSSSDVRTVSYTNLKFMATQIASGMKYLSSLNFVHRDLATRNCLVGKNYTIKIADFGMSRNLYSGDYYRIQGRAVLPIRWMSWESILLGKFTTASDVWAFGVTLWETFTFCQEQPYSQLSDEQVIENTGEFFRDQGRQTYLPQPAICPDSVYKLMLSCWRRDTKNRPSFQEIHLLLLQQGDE
Outline: as §1

NEK7(h) = NEK7(h) (Homo sapiens, UniProt Q8TDX7)
Outline: as §1

[1] = read-out: Residual activity (%) 5at
[2] = read-out: Residual activity (%) 5as
[3] = read-out: Residual activity (%) 5ay
[4] = read-out: Residual activity (%) Spautin-1 5aa

NEK7(h), sequence (Q8TDX7 whole entry): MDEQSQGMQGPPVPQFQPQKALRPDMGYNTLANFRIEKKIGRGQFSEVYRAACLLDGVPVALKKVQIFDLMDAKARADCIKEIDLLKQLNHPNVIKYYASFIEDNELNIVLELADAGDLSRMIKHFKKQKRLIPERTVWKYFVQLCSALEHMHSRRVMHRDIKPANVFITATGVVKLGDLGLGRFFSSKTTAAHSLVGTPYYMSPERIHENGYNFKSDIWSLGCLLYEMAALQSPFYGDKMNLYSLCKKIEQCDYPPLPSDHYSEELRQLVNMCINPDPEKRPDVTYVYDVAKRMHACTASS
T4 sequence (Q9P2K8 whole entry): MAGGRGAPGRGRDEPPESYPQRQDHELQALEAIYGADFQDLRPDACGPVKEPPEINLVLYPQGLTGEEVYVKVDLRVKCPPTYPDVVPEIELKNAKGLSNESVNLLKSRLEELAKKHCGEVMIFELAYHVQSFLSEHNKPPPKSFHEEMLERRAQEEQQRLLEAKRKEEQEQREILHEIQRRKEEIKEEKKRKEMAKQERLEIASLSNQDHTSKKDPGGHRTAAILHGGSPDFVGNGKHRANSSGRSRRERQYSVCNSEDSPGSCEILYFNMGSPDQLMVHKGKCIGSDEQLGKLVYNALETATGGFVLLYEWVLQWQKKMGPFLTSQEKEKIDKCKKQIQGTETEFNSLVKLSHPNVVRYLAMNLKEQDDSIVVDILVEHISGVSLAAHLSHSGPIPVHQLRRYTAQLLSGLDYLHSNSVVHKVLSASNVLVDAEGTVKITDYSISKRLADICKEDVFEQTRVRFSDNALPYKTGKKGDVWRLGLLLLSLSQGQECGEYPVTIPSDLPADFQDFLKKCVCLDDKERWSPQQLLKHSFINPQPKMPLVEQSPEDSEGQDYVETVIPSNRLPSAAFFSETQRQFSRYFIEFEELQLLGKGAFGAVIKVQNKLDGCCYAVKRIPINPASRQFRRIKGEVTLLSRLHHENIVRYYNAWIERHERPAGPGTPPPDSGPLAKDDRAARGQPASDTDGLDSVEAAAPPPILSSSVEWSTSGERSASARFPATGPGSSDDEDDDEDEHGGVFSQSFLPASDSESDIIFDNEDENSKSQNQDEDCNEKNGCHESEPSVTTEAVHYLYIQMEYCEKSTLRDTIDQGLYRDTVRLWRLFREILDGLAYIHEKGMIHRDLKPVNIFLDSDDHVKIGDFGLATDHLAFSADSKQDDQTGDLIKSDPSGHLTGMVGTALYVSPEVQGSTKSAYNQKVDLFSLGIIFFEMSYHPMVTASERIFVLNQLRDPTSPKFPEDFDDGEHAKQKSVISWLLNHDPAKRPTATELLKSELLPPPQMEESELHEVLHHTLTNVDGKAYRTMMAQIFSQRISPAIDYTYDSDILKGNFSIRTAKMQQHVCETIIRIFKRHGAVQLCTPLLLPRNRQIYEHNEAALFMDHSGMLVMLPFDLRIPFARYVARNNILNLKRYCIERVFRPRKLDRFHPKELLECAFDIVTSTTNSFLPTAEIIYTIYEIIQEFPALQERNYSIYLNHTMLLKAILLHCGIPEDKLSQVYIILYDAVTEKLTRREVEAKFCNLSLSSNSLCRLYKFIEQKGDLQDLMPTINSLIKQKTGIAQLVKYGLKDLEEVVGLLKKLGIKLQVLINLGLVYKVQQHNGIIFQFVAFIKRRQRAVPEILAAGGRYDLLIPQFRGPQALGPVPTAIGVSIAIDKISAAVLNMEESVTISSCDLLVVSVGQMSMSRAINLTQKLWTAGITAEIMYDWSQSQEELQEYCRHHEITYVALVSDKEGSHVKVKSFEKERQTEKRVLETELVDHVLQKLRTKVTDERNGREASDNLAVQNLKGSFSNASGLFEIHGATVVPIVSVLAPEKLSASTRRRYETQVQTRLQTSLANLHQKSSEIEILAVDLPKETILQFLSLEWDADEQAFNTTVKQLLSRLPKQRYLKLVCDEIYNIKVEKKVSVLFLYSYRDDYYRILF
T5 sequence (Q9Y243 whole entry): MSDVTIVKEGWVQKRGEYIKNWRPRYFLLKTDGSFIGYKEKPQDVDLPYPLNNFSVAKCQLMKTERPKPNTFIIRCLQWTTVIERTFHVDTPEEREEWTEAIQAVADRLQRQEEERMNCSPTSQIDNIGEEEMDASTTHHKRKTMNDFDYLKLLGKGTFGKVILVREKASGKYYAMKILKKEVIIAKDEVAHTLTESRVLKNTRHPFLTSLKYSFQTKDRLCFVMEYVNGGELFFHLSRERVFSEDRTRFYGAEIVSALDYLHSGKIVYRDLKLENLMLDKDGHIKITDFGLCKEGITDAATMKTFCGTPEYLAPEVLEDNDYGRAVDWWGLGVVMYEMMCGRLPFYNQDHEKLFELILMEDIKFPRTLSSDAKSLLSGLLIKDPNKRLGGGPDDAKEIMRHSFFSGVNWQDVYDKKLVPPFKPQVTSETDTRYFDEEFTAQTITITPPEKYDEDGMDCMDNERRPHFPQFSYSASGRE
T3 sequence (Q9P289 whole entry): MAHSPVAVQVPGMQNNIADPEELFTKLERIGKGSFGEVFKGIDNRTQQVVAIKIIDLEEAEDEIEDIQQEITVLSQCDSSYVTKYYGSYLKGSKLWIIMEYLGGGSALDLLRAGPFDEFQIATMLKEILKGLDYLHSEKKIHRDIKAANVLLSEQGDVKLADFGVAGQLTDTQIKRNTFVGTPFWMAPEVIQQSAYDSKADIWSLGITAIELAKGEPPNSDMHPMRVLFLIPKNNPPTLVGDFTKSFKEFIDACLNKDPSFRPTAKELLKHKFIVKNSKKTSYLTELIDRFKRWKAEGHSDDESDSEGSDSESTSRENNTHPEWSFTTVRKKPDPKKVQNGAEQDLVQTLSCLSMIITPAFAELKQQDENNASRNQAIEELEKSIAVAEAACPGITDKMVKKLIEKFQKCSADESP
ErbB2(h), sequence (P04626 whole entry): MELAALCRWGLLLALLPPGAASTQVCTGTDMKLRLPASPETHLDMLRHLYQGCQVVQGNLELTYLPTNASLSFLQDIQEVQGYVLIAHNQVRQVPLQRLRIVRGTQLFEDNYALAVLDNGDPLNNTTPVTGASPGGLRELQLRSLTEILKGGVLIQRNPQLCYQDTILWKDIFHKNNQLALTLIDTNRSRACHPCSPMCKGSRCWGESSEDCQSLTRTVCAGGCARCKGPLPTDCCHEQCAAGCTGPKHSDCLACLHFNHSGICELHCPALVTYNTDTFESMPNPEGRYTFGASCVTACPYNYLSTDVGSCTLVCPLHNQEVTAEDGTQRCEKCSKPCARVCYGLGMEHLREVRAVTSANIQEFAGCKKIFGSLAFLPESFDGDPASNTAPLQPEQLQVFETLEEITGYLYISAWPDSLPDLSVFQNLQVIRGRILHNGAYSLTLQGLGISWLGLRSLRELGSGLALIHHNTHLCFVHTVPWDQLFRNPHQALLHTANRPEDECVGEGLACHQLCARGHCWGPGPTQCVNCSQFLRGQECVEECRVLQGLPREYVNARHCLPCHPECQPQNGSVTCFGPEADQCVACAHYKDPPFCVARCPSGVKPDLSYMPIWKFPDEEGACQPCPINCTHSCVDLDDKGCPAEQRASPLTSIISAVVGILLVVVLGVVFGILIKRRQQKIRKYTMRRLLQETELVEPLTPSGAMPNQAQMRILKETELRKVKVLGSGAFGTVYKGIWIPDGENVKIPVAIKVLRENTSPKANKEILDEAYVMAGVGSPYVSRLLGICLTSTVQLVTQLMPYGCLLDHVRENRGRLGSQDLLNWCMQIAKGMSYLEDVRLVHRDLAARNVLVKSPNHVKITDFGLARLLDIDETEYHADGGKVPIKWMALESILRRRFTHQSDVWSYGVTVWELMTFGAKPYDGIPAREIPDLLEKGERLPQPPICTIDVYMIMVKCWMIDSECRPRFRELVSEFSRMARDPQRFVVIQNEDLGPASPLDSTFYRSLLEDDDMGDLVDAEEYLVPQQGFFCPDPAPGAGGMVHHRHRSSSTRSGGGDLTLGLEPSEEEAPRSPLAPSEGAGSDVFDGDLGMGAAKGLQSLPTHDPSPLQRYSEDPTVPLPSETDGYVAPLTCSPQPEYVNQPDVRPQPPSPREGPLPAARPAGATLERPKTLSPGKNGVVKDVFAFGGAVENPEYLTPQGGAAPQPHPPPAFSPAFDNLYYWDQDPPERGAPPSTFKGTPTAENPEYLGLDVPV

Fc1ccc2ncnc(NCCc3ccc(Cl)cc3)c2c1 [5at, N-[2-(4-Chlorophenyl)Ethyl]-6-Fluoro-4-Quinazolinamine]
remaining activity at 10 µM (Abl(Y253F)(h); [1]): 71% | remaining activity at 10 µM (TTK(h); [1]): 89% | remaining activity at 10 µM (MST4(h); [1]): 72% | remaining activity at 10 µM (GCN2(h); [1]): 97% | remaining activity at 10 µM (ErbB2(h); [1]): 65% | remaining activity at 10 µM (PKBγ(h); [1]): 105% | remaining activity at 10 µM (DDR2(h); [1]): 82% | remaining activity at 10 µM (NEK7(h); [1]): 83%

Fc1ccc(CCNc2ncnc3ccc(F)cc23)cc1 [5as, 6-Fluoro-N-[2-(4-Fluorophenyl)Ethyl]-4-Quinazolinamine]
remaining activity at 10 µM (Abl(Y253F)(h); [2]): 91% | remaining activity at 10 µM (TTK(h); [2]): 84% | remaining activity at 10 µM (MST4(h); [2]): 81% | remaining activity at 10 µM (GCN2(h); [2]): 85% | remaining activity at 10 µM (ErbB2(h); [2]): 79% | remaining activity at 10 µM (PKBγ(h); [2]): 102% | remaining activity at 10 µM (DDR2(h); [2]): 80% | remaining activity at 10 µM (NEK7(h); [2]): 74%

COc1ccc2ncnc(Nc3cccc(F)c3)c2c1 [5ay, N-(3-Fluorophenyl)-6-Methoxy-4-Quinazolinamine]
remaining activity at 10 µM (Abl(Y253F)(h); [3]): 66% | remaining activity at 10 µM (TTK(h); [3]): 104% | remaining activity at 10 µM (MST4(h); [3]): 64% | remaining activity at 10 µM (GCN2(h); [3]): 83% | remaining activity at 10 µM (ErbB2(h); [3]): 20% | remaining activity at 10 µM (PKBγ(h); [3]): 89% | remaining activity at 10 µM (DDR2(h); [3]): 84% | remaining activity at 10 µM (NEK7(h); [3]): 76%

Fc1ccc(CNc2ncnc3ccc(F)cc23)cc1 [5aa, 6-Fluoro-N-(4-fluorobenzyl)-4-Quinazolinamine]
remaining activity at 10 µM (Abl(Y253F)(h); [4]): 106% | remaining activity at 10 µM (TTK(h); [4]): 64% | remaining activity at 10 µM (MST4(h); [4]): 58% | remaining activity at 10 µM (GCN2(h); [4]): 85% | remaining activity at 10 µM (ErbB2(h); [4]): 74% | remaining activity at 10 µM (PKBγ(h); [4]): 101% | remaining activity at 10 µM (DDR2(h); [4]): 87% | remaining activity at 10 µM (NEK7(h); [4]): 95%
